Data: publication PMC9032663, “α-Glucosidase Inhibitory and Antimicrobial Benzoylphloroglucinols from Garcinia schomburgakiana Fruits: In Vitro and In Silico Studies” (Molecules, 2022)
Converted amounts (≈) assume the structure as drawn. Like-named read-outs stand apart in the source and are kept apart here.

Legend:
[1] = system: S. aureus; experiment: MIC determination; type: cell-based, Staphylococcus aureus
[2] = cytotoxicity assay; type: cell-based; settings: human, HEK293 cells (normal cell line)
From the text: The cytotoxic evaluation of compound 1 against the HEK293 normal cell line was applied from a previous procedure.

[3] = target: α-glucosidase; experiment: α-glucosidase inhibition assay; type: biochemical, yeast; settings: in vitro; read-out: α-glucosidase inhibitory activity IC50
Description: The enzymatic reaction was carried out at 37 °C for 20 min and stopped by adding 0.2 M Na2CO3 (130 μL). Enzymatic activity was quantified by measuring absorbance at 405 nm. All samples were analyzed in triplicate at five different concentrations around the IC50 values, and the mean values were retained.

[4] = system: Staphylococcus aureus; experiment: agar well diffusion antibacterial assay; type: cell-based; settings: S. aureus, concentration of 50 µg/mL
Description: (§1) The agar well diffusion method was used to evaluate the antibacterial activity of the isolated compounds on antibiotic-resistant, pathogenic bacteria Staphylococcus aureus, Enterococcus faecium, and Acinetobacter baumannii. Three bacterial pathogens were cultured in nutrient broth at 37 °C for 18 h. The cultures were diluted with sterile 0.9% NaCl to obtain bacterial solutions of 1.5 × 10^8 CFU/mL. This solution with a volume of 100 μL was spread on a Mueller–Hinton agar plate. Holes with a diameter of 8 mm were punched aseptically to create wells on the surface of the Mueller–Hinton agar. The compounds were dissolved in DMSO. The amount of 50 µg of each compound solution was inserted into the wells. The plates were incubated at 37 °C for 16–18 h, and the antibacterial activity of each compound was recorded by measuring the diameters of the inhibition zones surrounding the wells. DMSO was used as a control. […] Kanamycin was used as the positive control in this experiment.

[5] = system: Enterococcus faecium; experiment: agar well diffusion antibacterial assay; type: cell-based; settings: E. faecium, concentration of 50 µg/mL
Description: as §1

[6] = system: Acinetobacter baumannii; experiment: agar well diffusion antibacterial assay; type: cell-based; settings: A. baumannii, at the tested concentration
Description: as §1

[7] = system: S. aureus; parameters: method as in PMID 27458464; settings: cited from earlier work

Compound `NC[C@H]1O[C@H](O[C@H]2[C@H](O)[C@@H](O[C@H]3O[C@H](CO)[C@@H](O)[C@H](N)[C@H]3O)[C@H](N)C[C@@H]2N)[C@H](O)[C@@H](O)[C@@H]1O` [kanamycin, reference compound] has an MIC [1] of 8.26 µM (≈ 4 µg/mL).

Compound `CC(C)=CCCC1(C)C(CC=C(C)C)CC23CCC(C)(C)OC2=C(C(=O)c2ccc(O)c(O)c2)C(=O)C1(CC=C(C)C)C3=O` (centres unmarked) [Compound 1, schomburgkianone I] has an IC50 [2] of 87 µM, an IC50 [3] of 21.2 µM and an MIC ([1]; Staphylococcus aureus) of 13.3 µM (≈ 8.03 µg/mL). The zone of inhibition at 50 µg/mL [4] was 21 mm, the zone of inhibition at 50 µg/mL [5] was 20 mm and the antimicrobial activity [6] was “failed to show any activity”.

In the case of Guttiferone BL, the “activity against S. aureus” value [7] is listed as “low activity”.
